In article PMC8777946, “New Analogs of Polyamine Toxins from Spiders and Wasps: Liquid Phase Fragment Synthesis and Evaluation of Antiproliferative Activity” (Molecules, 2022):
Read-outs that look alike come from different tables or passages of the source.

Assays:
in vitro = type: cell-based; conditions: human, 24 h, MTT, read-out: % viability of MCF 12A
Description: (§1) The IC50 values of the tested compounds are summarized in Table 2 (see also Supplementary Material, Table S2).
(§2) […]. The chemical compounds were reconstituted in DMSO.
(§3) For the MTT [3-(4,5-dimethylthiazol-2-yl)-2,5-diphenyltetrazolium bromide] assay, cells were seeded in a 96-well plate (26.000 cells/well) for 48 h. Then, after overnight starvation through serum deprivation, cells were incubated for 24 h, with the chemical compounds at 100, 10, 1, and 0.1 μM concentrations in the MCF-12A culture medium deprived of serum. Next, MTT (5 mg/mL in sterile PBS) was added in an amount of 10% in the culture media volume for 4-h cell incubation at 37 °C. Subsequently, an MTT solubilization solution was added, in an amount equal to the original culture media volume (100 μL/well), and the formazan crystals were dissolved through thorough pipetting. The spectrophotometric measure of cells’ viability was performed in a Tecan (SPARK) spectrophotometer at an absorbance wavelength of 570 nm. Incubation with H2O2 was established as cytotoxicity positive control. The percentage of viability for each sample was calculated with respect to cells incubated with MCF-12A culture media (without serum) containing 2% DMSO (negative cytotoxicity control).

[1] = system: MCF-12A normal epithelial mammary cells; assay: cells; type: cell-based; conditions: for IC50: Homo sapiens, MCF-12A, 24 h incubation, serum-free medium, MTT; for selectivity index (SI) for the MCF-7 cells: IC50 MCF-12A versus IC50 MCF-7; for selectivity index (SI) for the MDA-MB-231 cells: IC50 MCF-12A versus IC50 MDA-MB-231
Description: as §1, §2, §3

[2] = system: MCF-7 breast cancer cells; conditions: 24 h treatment; ± SD; reference PATs, determined previously; cited from earlier work
[3] = system: MDA-MB-231 breast cancer cells; assay: Antiproliferative activity on MDA-MB-231 breast cancer cells (24 h, cell count or MTT); type: cell-based; conditions: for times less cytotoxic to the MDA-MB-231 cells than the MCF-7 cells: ratio of IC50 values; for IC50: read-out: IC50 MDA-MB-231
Description: (§4) The antiproliferative activity of the synthesized compounds was evaluated using MCF-7 and ΜDA-MB-231 breast carcinoma cells. MCF-7 cells are characterized by epithelial morphology, low metastatic potential, and low aggressiveness, and are estrogen receptor alpha (ERα)-positive, whereas MDA-MB-231cells are characterized by mesenchymal morphology, high metastatic potential, and high aggressiveness, and are ERβ-positive. The cells were treated for 24 h with compounds 1–10 in a range of concentrations, from 0 to 200 or 400 μM. In addition, the cells were treated with acid 21 alone and an equimolar mixture of acid 21 and Spd (the PA substructure of conjugate 2), to determine the effect of conjugation on the antiproliferative activity. The estimated IC50 values for these compounds are provided in Table 1 (see also Supplementary Material, Table S1). For the sake of comparison, the ΙC50 values of PATs HO-416b and Agel 416, determined previously, are included in Table 1. Calculated LogD values at pH 7.4, the physiological pH of blood serum, using ChemAxon’s Chemicalize platform are also included in Table 1.
(§5) MCF-7 and MDA-MB-231 breast cancer cell lines were purchased from the American Type Culture Collection (ATCC). All cells were routinely cultured in a humidified 95% air/5% CO2 incubator at 37 °C in complete medium Dulbecco’s Modified Eagle’s Medium (DMEM) supplemented with 10% (v/v) fetal bovine serum (FBS) 1.0 mM sodium pyruvate, 2 mM l-glutamine, and 100 IU/mL penicillin. The synthesized compounds were dissolved in ddH2O (or DMSO for compound […] and the equimolar mixture of compounds […] and Spd) at a final concentration of 10 mM and further dilutions were conducted with culture medium.
(§6) MCF-7 and ΜDA-MB-231 breast cancer cells were seeded in 12-well plates and were allowed to grow up to 60–70% confluence. After renewing the culture medium, cancer cells were treated for 24 h in serum-containing culture medium with compounds 1–10 in a range of concentrations, from 0 to 200 or 400 μM. In addition, cells were treated with acid 21 alone and an equimolar mixture of acid 21 and Spd in order to determine the effect of conjugation on the antiproliferative activity. Then, the surviving breast cancer cells were measured, either manually (for compounds Agel 416, HO-416b, 1-3, 6-7) or by measuring the absorbance following an MTT assay (for compounds 4-5, 8-10, 21 and 21+Spd), as described below in detail. The percentage of live cells was plotted against the log values of compound concentrations, and a non-linear fit plot was used to estimate the IC50 value for each compound.

[4] = system: MDA-MB-231 breast cancer cells; conditions: 24 h treatment; ± SD; reference PATs, determined previously; cited from earlier work
[5] = system: MCF-7 breast cancer cells; assay: Antiproliferative activity on MCF-7 breast cancer cells (24 h, cell count or MTT); type: cell-based; conditions: for IC50: read-out: IC50 MCF-7
Description: as §4, §5, §6

[6] = Homo sapiens, MDA-MB-231, 24 h, 24 h treatment, serum-containing medium, manual count (1-3, 6-7) or MTT (4-5, 8-10, 21, 21+Spd), ± SD, tested as trifluoroacetate salts
[7] = Homo sapiens, MCF7, 24 h, 24 h treatment, serum-containing medium, manual count (1-3, 6-7) or MTT (4-5, 8-10, 21, 21+Spd), ± SD, tested as trifluoroacetate salts
[8] = 24 h treatment, serum-containing medium, manual count (1-3, 6-7) or MTT (4-5, 8-10, 21, 21+Spd), ± SD, tested as trifluoroacetate salts

NCCCNCCCCNCCCNCCCNC(=O)Cc1c[nH]c2ccccc12 [Agel 416]
viability (in vitro; 0.1 μΜ): 95.4%
viability (in vitro; 1 μΜ): 84.3%
viability (in vitro; 10 μΜ): 63.5%
viability (in vitro; 100 μΜ): 69%
IC50 [1]: 184 µM
selectivity index (SI) for the MCF-7 cells [1]: ~335
selectivity index (SI) for the MDA-MB-231 cells [1]: ~56
IC50 [2]: 0.55 ± 0.02 µM
times less cytotoxic to the MDA-MB-231 cells than the MCF-7 cells [3]: 6 times
IC50 [4]: 3.31 ± 0.08 µM

NCCCNCCCCNCCCNC(=O)Cc1c[nH]c2ccccc12 [Compound 1]
IC50 [3, 6]: > 200 µM
IC50 [5, 7]: > 200 µM

NCCCNCCCCNC(=O)Cc1c[nH]c2ccccc12 [Compound 2]
IC50 [3, 6]: 12.6 ± 0.57 µM
times less active than HO-416b ([3]; MDA-MB-231 cells): 4 times
times more active than the mere combination of 21 and Spd ([3]; MDA-MB-231 cells): ~22 times
IC50 [5, 7]: 3.15 ± 0.25 µM
times less active than HO-416b ([5]; MCF-7 cells): 35 times
times more active than the mere combination of 21 and Spd ([5]; MCF-7 cells): ~42 times

NCCCCNC(=O)Cc1c[nH]c2ccccc12 [Compound 3]
IC50 [3, 8]: 107 µM
IC50 [3, 6]: 170 µM
IC50 [5, 8]: 272 ± 11.2 µM
IC50 [5, 7]: 272 µM

CCCC(=O)N[C@H](C(=O)NCCCCNCCCNCCCN)[C@@H](C)O [Compound 4]
IC50 [3, 6]: > 400 µM
IC50 [5, 7]: > 400 µM

CCCC(=O)N[C@H](C(=O)NCCCNCCCCNCCCN)[C@@H](C)O [Compound 5]
IC50 [3, 6]: > 400 µM
IC50 [5, 7]: > 400 µM

CCCC(=O)N[C@@H](Cc1ccc(O)cc1)C(=O)NCCCNCCCCNCCCN [Compound 6]
IC50 ([3]; Homo sapiens, MDA-MB-231, 24 h): > 400 µM
IC50 ([5]; Homo sapiens, MCF7, 24 h): > 400 µM

CCCC(=O)N[C@@H](Cc1ccc(O)cc1)C(=O)NCCCCNCCCCNCCCCN [Compound 7]
IC50 [3, 6]: > 400 µM
IC50 [5, 7]: > 400 µM

CCCC(=O)N[C@@H](Cc1ccc(O)cc1)C(=O)NCCCCNCCCNCCCNCCCN [Compound 8]
IC50 [3, 6]: > 400 µM
IC50 [5, 7]: > 400 µM

C#CC[C@H](NC(=O)c1ccc(C2(C(F)(F)F)N=N2)cc1)C(=O)NCCCCNCCCNCCCN [Compound 9]
IC50 [3, 6]: > 200 µM
IC50 [5, 7]: 2.63 ± 1.58 µM

C#CC[C@H](NC(=O)c1ccc(C2(C(F)(F)F)N=N2)cc1)C(=O)NCCCNCCCNCCCCN [Compound 10]
IC50 [3, 6]: > 200 µM
IC50 [5, 7]: 2.81 ± 1.64 µM

O=C(O)Cc1c[nH]c2ccccc12 [Compound 21, (indol-3-yl)acetic acid, reference compound]
IC50 [3, 6]: 262 ± 42 µM
IC50 [5, 7]: 366 ± 73 µM

NCCCNCCCNCCCNCCCCNC(=O)Cc1c[nH]c2ccccc12 [HO-416b]
viability (in vitro; 0.1 μΜ): 92.5%
viability (in vitro; 1 μΜ): 89.7%
viability (in vitro; 10 μΜ): 77.5%
viability (in vitro; 100 μΜ): 50.8%
IC50 [1]: 97.2 µM
selectivity index (SI) for the MCF-7 cells [1]: ~1080
selectivity index (SI) for the MDA-MB-231 cells [1]: ~24
times more cytotoxic than Agel 416 ([1]; MCF-12A cells): ~1.9 times
IC50 [2]: 0.09 ± 0.012 µM
times less cytotoxic to the MDA-MB-231 cells than the MCF-7 cells [3]: ~44 times
times more cytotoxic than Agel 416 ([5]; MCF-7 cells): ~6 times
IC50 [4]: 3.98 ± 0.064 µM
